Legend:
[1] = biological target: Human Thrombin (Homo sapiens, UniProt P00734); test: Inhibition of amidase activity of thrombin (Kass); format: biochemical; conditions: apparent association constant, mean over a range of concentrations
Method: (§1) The assay is carried out by mixing 50 μL buffer (0.03M Tris, 0.15M NaCl, pH 7.4) with 25 μL of bovine thrombin or human thrombin solution (0.21 mg/mL of thrombostat bovine thrombin, Parke-Davis, or purified human thrombin, Enzyme Research Laboratories, South Bend, Ind., at about 8 NIH units/mL, in the same buffer) and 25 μL of test compound in a solvent (in 50% aqueous methanol, v:v). The 150 μL of an aqueous solution of the chromogenic substrate (at 0.25 mg/mL) are added and the rates of hydrolysis of the substrate are measured by monitoring the reactions at 405 nm for the release of p-nitroaniline. Standard curves are constructed by plotting free thrombin concentration against hydrolysis rate. The hydrolysis rates observed with test compounds are then converted to "free thrombin" values in the respective assays by use of the standard curves. The bound thrombin (bound to test compound) is calculated by subtracting the amount of free thrombin observed in each assay from the known initial amount of thrombin used in the assay. The amount of free inhibitor in each assay is calculated by subtracting the number of moles of bound thrombin from the number of moles of added inhibitor (test compound).
The Kass value is the hypothetical equilibrium constant for the reaction between thrombin and the test compound (I). [drawing 54]
(§2) Kass is calculated for a range of concentrations of test compounds and the mean value is reported in units of liter per mole.

[2] = biological target: T1, Trypsin (Bos taurus, UniProt P00760); test: Serine protease selectivity, chromogenic substrate (Kass), trypsin; format: biochemical, bovine; conditions: substrate N-Benzoyl-Phe-Val-Arg-p-nitroanilide
T1 construct: Bovine trypsin is purchased; purchased Worthington Biochemicals, Freehold, N.J
T1 sequence (P00760 24-246): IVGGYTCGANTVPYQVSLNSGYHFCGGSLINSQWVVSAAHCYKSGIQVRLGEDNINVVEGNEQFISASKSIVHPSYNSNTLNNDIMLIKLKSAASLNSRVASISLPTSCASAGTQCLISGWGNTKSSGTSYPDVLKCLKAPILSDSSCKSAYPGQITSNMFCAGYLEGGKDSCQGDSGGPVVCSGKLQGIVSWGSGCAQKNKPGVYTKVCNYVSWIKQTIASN
Method: as §1, §2
By substantially following the procedures described above for human thrombin, and using other human blood coagulation system serine proteases and proteases of the fibrinolytic system with the appropriate chromogenic substrates, identified below, selectivity of the compounds of the present invention with respect to the coagulation factor serine proteases and with respect to the fibrinolytic system serine proteases are evaluated as well as their substantial lack of interference with serine proteases of the fibrinolytic system. Thrombin inhibitors preferably should spare fibrinolysis induced by urokinase, tissue plasminogen activator (t-PA) and streptokinase. This would be important to the therapeutic use of such agents as an adjunct to streptokinase, t-PA or urokinase thrombolytic therapy and to the use of such agents as an endogenous fibrinolysis-sparing (with respect to t-PA and urokinase) antithrombotic agent. In addition to the lack of interference with the amidase activity of the fibrinolytic proteases, such fibrinolytic system sparing can be studied by the use of human plasma clots and their lysis by the respective fibrinolytic plasminogen activators.
Human factors X, Xa, IXa, XIa, and XIIa are purchased from Enzyme Research Laboratories, South Bend, Ind.; human urokinase from Leo Pharmaceuticals, Denmark; and recombinant activated Protein C (aPC) is prepared at Eli Lilly and Co. substantially according to U.S. Pat. No. 4,981,952. Chromogenic substrates: N-Benzoyl-Ile-Glu-Gly-Arg-p-nitroanilide (for factor Xa); N-Cbz-D-Arg-Gly-Arg-p-nitroanilide (for factor IXa assay as the factor Xa substrate); Pyroglutamyl-Pro-Arg-p-nitroanilide (for Factor XIa and for aPC); H-D-Pro-Phe-Arg-p-nitroanilide (for factor XIIa); and Pyroglutamyl-Gly-Arg-p-nitroanilide (for urokinase); are purchased from KabiVitrum, Stockholm, Sweden, or from Midwest Biotech, Fishers, Ind. Bovine trypsin is purchased from Worthington Biochemicals, Freehold, N.J., and human plasma kallikrein from Kabi Vitrum, Stockholm, Sweden. Chromogenic substrate H-D-Pro-Phe-Arg-p-nitroanilide for plasma kallikrein is purchased from Kabi Vitrum, Stockholm, Sweden. N-Benzoyl-Phe-Val-Arg-p-nitroanilide, the substrate for human thrombin and for trypsin, is synthesized according to procedures described above for the compounds of the present invention, using known methods of peptide coupling from commercially available reactants or purchased from Midwest Biotech, Fishers, Ind.

[3] = tested on: Human plasma; test: Human plasma anticoagulation, thrombin time (TT); format: biochemical; conditions: concentration required to double the thrombin time, linear extrapolation
Method: (§3) Dog plasma and rat plasma is obtained from conscious mixed-breed hounds (either sex, Hazelton-LRE, Kalamazoo, Mich., U.S.A.) or from anesthetized male Sprague-Dawley rats (Harlan Sprague-Dawley, Inc., Indianapolis, Ind., U.S.A.) by venipuncture into 3.8 percent citrate. Fibrinogen is prepared from in-date ACD human blood as the fraction I-2 according to previous procedures and specifications. Smith, Biochem. J., 185, 1-11 (1980); and Smith, et al., Biochemistry, 11, 2958-2967 (1972). Human fibrinogen is also purchased as 98 percent pure/plasmin free from American Diagnostica, Greenwich, Conn. Coagulation reagents ACTIN, Thromboplastin, and Human plasma are from Baxter Healthcare Corp., Dade Division, Miami, Fla. Bovine thrombin from Parke-Davis ([…], Mich.) is used for coagulation assays in plasma.
(§4) Coagulation assay procedures are as previously described. Smith, et al., Thrombosis Research, 50, 163-174 (1988). A CoAScreener coagulation instrument (American LABor, Inc.) is used for all coagulation assay measurements. The prothrombin time (PT) is measured by adding 0.05 mL saline and 0.05 mL Thromboplastin-C reagent to 0.05 mL test plasma. The activated partial thromboplastin time (APTT) is measured by incubation of 0.05 mL test plasma with 0.05 mL Actin reagent for 120 seconds followed by 0.05 mL CaCl2 (0.02M). The thrombin time (TT) is measured by adding 0.05 mL saline and 0.05 mL thrombin (10 NIH units/mL) to 0.05 mL test plasma. The compounds of formula I are added to human or animal plasma over a wide range of concentrations to determine prolongation effects on the APTT, PT, and TT assays. Linear extrapolations are performed to estimate the concentrations required to double the clotting time for each assay.

[4] = tested on: Human plasma; test: Human plasma anticoagulation, activated partial thromboplastin time (APTT); format: biochemical; conditions: concentration required to double the APTT, linear extrapolation
Method: as §3, §4

[5] = tested on: Human plasma; test: Human plasma anticoagulation, prothrombin time (PT); format: biochemical; conditions: concentration required to double the PT, linear extrapolation
Method: as §3, §4

Enzyme Kass, Human Thrombin [1]	Enzyme Kass, Trypsin [2] [L/mol × 10^6]	Enzyme Kass, Human Thrombin ([1]; HCl)	Enzyme Kass, Trypsin ([2]; HCl) [L/mol × 10^6]	Compound	2x Clotting time, TT [3] [ng/mL]	2x Clotting time, APTT [4]	2x Clotting time, PT [5]	2x Clotting time, TT ([3]; HCl) [ng/mL]	2x Clotting time, APTT ([4]; HCl) [ng/mL]	2x Clotting time, PT ([5]; HCl)
27 L/mol × 10^6	260	–	–	CCC[C@H]1C[C@@H](C(=O)N[C@H](C=O)CCCNC(=N)N)N(C(=O)[C@H]2CCCCN2)C1.Cl.Cl (relative stereo) [Example 3, D-hPro-Pro(4-cis-n-propyl)-ArgH.2 HCl]	120	610 ng/mL	2,900 ng/mL	–	–	–
230 L/mol × 10^6	140	–	–	Cl.Cl.N=C(N)NCCC[C@@H](C=O)NC(=O)[C@@H]1C[C@H](Oc2ccccc2)CN1C(=O)C1NCCC2CCCCC21 (relative stereo) [Example 15, D-1-Piq-Pro(4-cis-phenoxy)-ArgH.2 HCl]	28	940 ng/mL	1,600 ng/mL	–	–	–
37 L/mol × 10^6	130	–	–	Cl.Cl.Cl.N=C(N)NCCC[C@@H](C=O)NC(=O)[C@@H]1C[C@H](Oc2cccnc2)CN1C(=O)[C@H]1CCCCN1 (relative stereo) [Example 9, D-hPro-Pro(4-cis-(3-pyridyloxy))-ArgH.3 HCl]	50	880 ng/mL	3,100 ng/mL	–	–	–
–	–	1,630 L/mol × 10^6	119	Cl.Cl.N=C(N)NCCCC(C=O)NC(=O)C1CC2CCCCC2N1C(=O)C1NCCC2CCCCC21 [Example 20, D-1-cis-Piq-cis-Ohi-ArgH.2 HCl]	–	–	–	19	627	1,452 ng/mL
28 L/mol × 10^6	74	–	–	Cl.Cl.Cl.N=C(N)NCCC[C@@H](C=O)NC(=O)[C@@H]1C[C@H](Oc2ccc(N)cc2)CN1C(=O)[C@H]1CCCCN1 (relative stereo) [Example 11, D-hPro-Pro(4-cis-(4-NH2-phenoxy))-ArgH.3 HCl]	96	1,400 ng/mL	5,900 ng/mL	–	–	–
50 L/mol × 10^6	270	–	–	Cl.Cl.N=C(N)NCCC[C@H](C=O)NC(=O)[C@@H]1C[C@H](Oc2ccccc2)CN1C(=O)[C@H]1CCCCN1 (relative stereo) [Example 8, D-homoprolyl-L-cis-4-phenoxy-L-prolyl-D-argininal dihydrochloride]	70	520 ng/mL	1,900 ng/mL	–	–	–
110 L/mol × 10^6	150	–	–	Cl.Cl.N=C(N)NCCC[C@@H](C=O)NC(=O)[C@@H]1C[C@H](Cc2ccccc2)CN1C(=O)[C@H]1CCCCN1 (relative stereo) [Example 5, D-hPro-Pro(4-cis-benzyl)-ArgH.2 HCl]	80	510 ng/mL	1,600 ng/mL	–	–	–
6,170 L/mol × 10^6	312	–	–	CCS(=O)(=O)N[C@@H](C(=O)N1[C@H](C(=O)N[C@H](C=O)CCCNC(=N)N)C[C@@H]2CCCC[C@@H]21)c1ccccc1.Cl (relative stereo) [Example 22, EtSO2 -D-Phg-cis-Ohi-ArgH.HCl]	9	332 ng/mL	1,208 ng/mL	–	–	–
340 L/mol × 10^6	150	–	–	Cl.Cl.N=C(N)NCCC[C@@H](C=O)NC(=O)[C@@H]1CC2CCCCC2N1C(=O)[C@H]1CCCCN1 (relative stereo) [Example 7, N-[(1-D-homoprolyl-cis-octahydro-1H-indol-2(S)-yl)carbonyl]-L-argininal dihydrochloride]	37	450 ng/mL	1,500 ng/mL	–	–	–
230 L/mol × 10^6	520	–	–	CC[C@H]1C[C@@H](C(=O)N[C@H](C=O)CCCNC(=N)N)N(C(=O)[C@H]2CCCCN2)C1.Cl.Cl (relative stereo) [Example 2, D-homoprolyl-L-cis-4-ethyl-prolyl-L-argininal dihydrochloride]	51	460 ng/mL	1,500 ng/mL	–	–	–

Compound	Enzyme Kass, Human Thrombin [1]	Enzyme Kass, Trypsin [2] [L/mol × 10^6]	Enzyme Kass, Human Thrombin ([1]; HCl)	Enzyme Kass, Trypsin ([2]; HCl) [L/mol × 10^6]	2x Clotting time, TT [3] [ng/mL]	2x Clotting time, APTT [4]	2x Clotting time, PT [5]	2x Clotting time, TT ([3]; HCl) [ng/mL]	2x Clotting time, APTT ([4]; HCl) [ng/mL]	2x Clotting time, PT ([5]; HCl)
C[C@H]1C[C@@H](C(=O)N[C@H](C=O)CCCNC(=N)N)N(C(=O)[C@H]2CCCCN2)C1.Cl.Cl (relative stereo) [Example 1, D-homoprolyl-L-cis-4-methyl-prolyl-L-argininal dihydrochloride]	220 L/mol × 10^6	390	–	–	60	510 ng/mL	1,700 ng/mL	–	–	–
